Test results: US6482410B1, “Cytotactin derivatives that stimulate attachment and neurite outgrowth, and methods of making same” (The Scripps Research Institute, priority 1994, dated 2002)
“Also recorded” adds a separate entry of the source. No end group written: not given here.

How the values were obtained:
[1] = test system: chicken fibroblast SL29 cells; experiment: Cell attachment inhibition assay, fibroblasts on CT or CT:GST fusion proteins; format: cell-based; settings: for inhibition of cell attachment to intact CT: RGD peptides 1 mg/ml, JG22 50 μg/ml, FIG. 2; for effect on cell attachment to CTfg substrate / effect on cell attachment to CTfn3 substrate / effect on cell attachment to CTfn6 substrate: equimolar substrates
Method: In the cell attachment inhibition assay, a single cell suspension was incubated with a potential inhibitor and then allowed to settle for a fixed period of time onto a solid support that has been coated with the different proteins to be tested (Friedlander, et al., J. Cell Biol. 107: 2329-2340 (1988)). After removing the unbound and loosely bound cells by washing, the attachment and morphology of those cells remaining on the dish were analyzed.
In the cell attachment inhibition assays, cells were incubated with soluble RGD peptides and/or a monoclonal antibody prior to incubation with solid support.
The inhibitors tested were the RGD-containing soluble peptides, GRGDSP and GRGDTP and the mAb JG22 (Developmental Studies Hybridoma Bank at Department of Pharmacology and Molecular Sciences, Johns Hopkins University School of Medicine, Baltimore, Md.). JG22 is a mouse hybridoma which binds to many types of chicken cells, including fibroblasts and muscle, and is specific to chicken (Greve, et al., J. Cell. Biochem. 18: 221-229 (1982)). JG22 is known to perturb cell attachment to extracellular matrix proteins and disrupts the function of the β1 integrin.
The cell attachment inhibition assay was performed essentially as described for the cell attachment assay in Example 5.B., but with the following modifications.
The solid support and cells were prepared as described in Example 5.B. Again, the initial assay was performed using only intact CT for the preparation of the solid support. The inhibitors tested, GRGDSP, GRGDTP, and the mAb JG22, were admixed with separate aliquots of the chicken fibroblast SL29 and DRG cells prior to addition to the solid support containing intact CT. The RGD-containing peptides were added at a final concentration of 1 mg/ml. The mAb JG22 was added at a final concentration of 50 μg/ml. A combination of each of the RGD-containing peptides and mAb JG22 were also incubated with the fibroblast and DRG cells. The cells and potential inhibitors were incubated for 10 minutes at room temperature and then added to the solid support. Fibroblast and DRG cells without inhibitors were also added to the solid support.
After incubation at 37° C. in 5% CO2 for 1 hour, the solid supports were washed three times in PBS with gentle swirling to remove unattached cells. The cells attached to the solid support were fixed in 1% (v/v) glutaraldehyde in PBS and viewed by phase contrast microscopy. The attached cells were counted using a 10× objective and with an eyepiece reticle. Cells were counted in four fields per adsorbed protein spot. Each protein was tested in three separate spots. The number of cells bound was expressed as the average of the twelve measurements±the standard deviation.
The cell attachment inhibition assay was repeated as described above but using all of the CT:GST fusion proteins in place of intact CT for the preparation of the solid support as described in Example 1.
Cell attachment assays were performed essentially as follows. The chicken fibroblast cell line SL29 was grown to confluence in DMEM with 10% FCS and penicillin/streptomycin. The cells were passaged the night before the assay and seeded at a density of 1:2. Cells were harvested in calcium, magnesium free Hank's balanced salt solution (CMF-HBSS) with 20 mM Hepes buffer and 5 mM EDTA added. The cells were then washed in attachment buffer (CMF-HBSS, 10 mM Hepes, 1 mM CaCl2, 1 mM MgCl2, 0.1 mM MnCl2, 2% BSA) three times, counted in a hemocytometer, resuspended to a density of 6×10^5 cells/ml. Dorsal root ganglion (DRG) neurons were prepared for attachment assays as described in Example 5, but were washed and resuspended at a density of 6×10^5 cells/ml in attachment buffer. Inhibitors of attachment were added at this time.
To some samples GRGDSP (SEQ ID NO 11) or GRGDTP (SEQ ID NO 12) peptide was added at a concentration of 1 mg/ml. […]

type I collagen = settings: Dedhar et al. 1987; Hynes 1992; cited from earlier work
[2] = test system: dorsal root ganglia (DRG) neurons; experiment: Two-dimensional neurite outgrowth assay, DRG, 15 hours; format: cell-based, chicken; settings: DRG neurons
Method: Dorsal root ganglia (DRG) cells or forebrain neurons were prepared for the cell attachment assays as follows. DRG from day 6 chicken embryos or forebrains from day 7 chicken embryos were dissected into HBSS. The tissue was pelleted by centrifugation and resuspended in CMF-HBSS and incubated at 37° C. for 10 minutes. The tissue was pelleted again and resuspended in CMF-HBSS containing 0.08% trypsin and allowed to trypsinize for 20 minutes at 37° C. An equal volume of DMEM/F12, 10% FCS, 20 ng/ml nerve growth factor (NGF) (for DRG cells only), 10 μg/ml gentamycin (10% medium) was added, and the tissue was pelleted and resuspended in 2 ml of the 10% medium. The cells were triturated with a fire-polished Pasteur pipette for 15 strokes, and the cells were washed and resuspended in 10 ml of 10% medium. DRG cells were plated in a 10 cm tissue culture dish and incubated for 1 hour at 37° C. in 5% CO2, to allow for attachment of contaminating fibroblasts.
After replating, the cells were harvested, pelleted and washed three times in DMEM/F12, 1% fetal calf serum (FCS), 20 ng/ml NGF (for DRG cells only), 10 μg/ml gentamycin (1% medium), and the number of cells determined using a hemocytometer. The DRG were resuspended to a density of 6×10^5 cells/ml in attachment buffer. The neurons were resuspended to a density of 2×10^4 cells/ml in 1% medium and added to substrates and placed at 37° C., 5% CO2 for 15 hours.
After the growth period, the dishes were gently rinsed with PBS to remove unbound cells, fixed with 1% glutaraldehyde, and viewed by phase contrast microscopy. Ten to forty cells were analyzed for each substrate. Cells were judged as neurite-bearing if the length of the processes was greater than one cell diameter. All cells with neurites were photographed with a 20× objective and total neurite length per neurite-bearing cell was derived from the photographic prints. Percentage of neuronal sprouting was calculated from at least six experiments. Neurite length was calculated from at least three experiments.
This extensive neurite outgrowth after 40 hours made quantitation of the percentage of neurite-bearing cells and neurite length difficult. To analyze quantitatively the effect of CT/TN fusion proteins on DRG neurite outgrowth, DRG cells were therefore plated at low density on CT/TN or CT/TN fragments and analyzed after 15 hours in culture for the percentage of cells that sprouted neurites greater than one cell diameter and for the everage neurite length per neuron. These conditions enhanced the number of isolated cells and discouraged the cell-cell interactions and fasciculation that occurred in the long-term cultures.
The proteins used in the neurite outgrowth assays are the same as those used in the cell attachment assays. […] In addition, poly-L-lysine was adsorbed to the solid support. […] Any cells adhering to the solid support were examined for sprouting and neurite length as defined herein.
Proteins used in the neurite outgrowth assays were prepared as described in Example 5.A.2.
Dorsal root ganglia (DRG) from day 6 chicken embryos were prepared as described in Example 5.A.4. For the neurite outgrowth assays, the DRG were resuspended at a density of 2×10^4 cells/ml in 1% medium, added to solid support, and placed at 37° C. in 5% CO2 for 15 hours. After the attachment and growth period, the dishes were gently rinsed with PBS to remove unbound cells, fixed with 1% (v/v) glutaraldehyde, and viewed by phase contrast microscopy. Ten to thirty cells were analyzed for each adsorbed protein spot. Cells were judged as neurite-bearing if the length of the processes were greater than one cell diameter. All cells with neurites were photographed with a 40× objective and the total neurite length per neurite-bearing cell was derived from the prints. The percent of cells that were sprouting and the average neurite length was derived from six and three independent experiments, respectively. […]

Row | Substance | inhibition of cell attachment to intact CT [1] [%] | effect on cell attachment to CTfg substrate ([1]; inhibitor added before plating) | effect on cell attachment to CTfn3 substrate ([1]; inhibitor added before plating) | effect on cell attachment to CTfn6 substrate ([1]; inhibitor added before plating) | inhibition of cell attachment to collagen I (type I collagen) | inhibition of SL29 attachment to CT/TN, further analysis ([1]; 1 mg/ml GRGDTP peptide) [%] | effect on cell attachment to CTfn5-6 substrate ([1]; inhibitor added before plating) | effect on neurite outgrowth on CTfn3 or CTfn6 substrates [2] | effect on neurite outgrowth on polylysine-coated substrates [2]
1 | Gly-Arg-Gly-Asp-Ser-Pro [GRGDSP] | 73 | unaffected | completely inhibited | only partially inhibited; also recorded: could inhibit | far less effective inhibitor; also recorded: had no effect; also recorded: generally has no effect | – | – | – | –
2 | GRGDTP [GRGDTP] | 70 | unaffected | completely inhibited; also recorded: selectively inhibited | not effective; also recorded: ineffective | active inhibitor; also recorded: inhibit binding to collagen I | 33 | unaffected | inhibited neurite outgrowth | not on polylysine-coated substrates
